Earlier results as cited in PubChem BioAssay AID1259409 (Chemical Carcinogenesis Research Information System (CCRIS), 2018).

Tested on: rodent chemically induced tumor inhibition, incidence and multiplicity
Test: CCRIS tumor inhibitor studies

CCCCCCCCCCCCC/C=C/[C@@H](O)[C@@H](N)CO
tumour outcome (control, treated, inhibition, significance) (Carcinogen: 7,12-DIMETHYLBENZ[A]ANTHRACENE, 57-97-6, Dose [Inhibitor]: 0, 0.01 UMOL IN 0.2 ML ACETONE 2/WK FOR 15 WK APPLIED 30 MIN PRIOR TO EACH PROMOTER DOSE (STUDY DURATION: 50 WK), Route [Inhibitor]: DERMAL, Species: MOUSE, Strain/Sex: SENCAR/FEMALE, Target Tissue: Type of Lesion: SKIN: CARCINOMA, Dose [Carcinogen]: 10 NMOL ONCE, Promoter: 12-O-TETRADECANOYLPHORBOL-13-ACETATE, 16561-29-8): 87%, 77%, 11%, not significant | tumour outcome (control, treated, inhibition, significance) (Carcinogen: 7,12-DIMETHYLBENZ[A]ANTHRACENE, 57-97-6, Dose [Inhibitor]: 0, 0.01 UMOL IN 0.2 ML ACETONE 2/WK FOR 15 WK APPLIED 30 MIN PRIOR TO EACH PROMOTER DOSE (STUDY DURATION: 50 WK), Route [Inhibitor]: DERMAL, Species: MOUSE, Strain/Sex: SENCAR/FEMALE, Target Tissue: Type of Lesion: SKIN: PAPILLOMA, Dose [Carcinogen]: 10 NMOL ONCE, Promoter: 12-O-TETRADECANOYLPHORBOL-13-ACETATE, 16561-29-8): 94%, 88%, 6%, not significant | tumour outcome (control, treated, inhibition, significance) (Carcinogen: 7,12-DIMETHYLBENZ[A]ANTHRACENE, 57-97-6, Dose [Inhibitor]: 0, 0.05 UMOL IN 0.2 ML ACETONE 2/WK FOR 15 WK APPLIED 30 MIN PRIOR TO EACH PROMOTER DOSE (STUDY DURATION: 50 WK), Route [Inhibitor]: DERMAL, Species: MOUSE, Strain/Sex: SENCAR/FEMALE, Target Tissue: Type of Lesion: SKIN: CARCINOMA, Dose [Carcinogen]: 10 NMOL ONCE, Promoter: 12-O-TETRADECANOYLPHORBOL-13-ACETATE, 16561-29-8): 87%, 82%, 6%, not significant | tumour outcome (control, treated, inhibition, significance) (Carcinogen: 7,12-DIMETHYLBENZ[A]ANTHRACENE, 57-97-6, Dose [Inhibitor]: 0, 0.05 UMOL IN 0.2 ML ACETONE 2/WK FOR 15 WK APPLIED 30 MIN PRIOR TO EACH PROMOTER DOSE (STUDY DURATION: 50 WK), Route [Inhibitor]: DERMAL, Species: MOUSE, Strain/Sex: SENCAR/FEMALE, Target Tissue: Type of Lesion: SKIN: PAPILLOMA, Dose [Carcinogen]: 10 NMOL ONCE, Promoter: 12-O-TETRADECANOYLPHORBOL-13-ACETATE, 16561-29-8): 94%, 91%, 3%, not significant | tumour outcome (control, treated, inhibition, significance) (Carcinogen: 7,12-DIMETHYLBENZ[A]ANTHRACENE, 57-97-6, Dose [Inhibitor]: 0, 0.5 UMOL IN 0.2 ML ACETONE 2/WK FOR 15 WK APPLIED 30 MIN PRIOR TO EACH PROMOTER DOSE (STUDY DURATION: 50 WK), Route [Inhibitor]: DERMAL, Species: MOUSE, Strain/Sex: SENCAR/FEMALE, Target Tissue: Type of Lesion: SKIN: CARCINOMA, Dose [Carcinogen]: 10 NMOL ONCE, Promoter: 12-O-TETRADECANOYLPHORBOL-13-ACETATE, 16561-29-8): 87%, 84%, 3%, not significant | tumour outcome (control, treated, inhibition, significance) (Carcinogen: 7,12-DIMETHYLBENZ[A]ANTHRACENE, 57-97-6, Dose [Inhibitor]: 0, 0.5 UMOL IN 0.2 ML ACETONE 2/WK FOR 15 WK APPLIED 30 MIN PRIOR TO EACH PROMOTER DOSE (STUDY DURATION: 50 WK), Route [Inhibitor]: DERMAL, Species: MOUSE, Strain/Sex: SENCAR/FEMALE, Target Tissue: Type of Lesion: SKIN: PAPILLOMA, Dose [Carcinogen]: 10 NMOL ONCE, Promoter: 12-O-TETRADECANOYLPHORBOL-13-ACETATE, 16561-29-8): 94%, 85%, 10%, not significant | tumour outcome (control, treated, inhibition, significance) (Carcinogen: 7,12-DIMETHYLBENZ[A]ANTHRACENE, 57-97-6, Dose [Inhibitor]: 0, 10 UMOL IN 0.2 ML ACETONE 2/WK FOR 20 WK APPLIED 30 MIN PRIOR TO EACH PROMOTER DOSE (STUDY DURATION: 50 WK), Route [Inhibitor]: DERMAL, Species: MOUSE, Strain/Sex: SENCAR/FEMALE, Target Tissue: Type of Lesion: SKIN: CARCINOMA, Dose [Carcinogen]: 10 NMOL ONCE, Promoter: 12-O-TETRADECANOYLPHORBOL-13-ACETATE, 16561-29-8): 47%, 56%, -19%, not significant | tumour outcome (control, treated, inhibition, significance) (Carcinogen: 7,12-DIMETHYLBENZ[A]ANTHRACENE, 57-97-6, Dose [Inhibitor]: 0, 10 UMOL IN 0.2 ML ACETONE 2/WK FOR 20 WK APPLIED 30 MIN PRIOR TO EACH PROMOTER DOSE (STUDY DURATION: 50 WK), Route [Inhibitor]: DERMAL, Species: MOUSE, Strain/Sex: SENCAR/FEMALE, Target Tissue: Type of Lesion: SKIN: PAPILLOMA, Dose [Carcinogen]: 10 NMOL ONCE, Promoter: 12-O-TETRADECANOYLPHORBOL-13-ACETATE, 16561-29-8): 93%, 96%, -3%, not significant

CCC1(c2ccc(N)cc2)CCC(=O)NC1=O (stereo unspecified)
tumour outcome (control, treated, inhibition, significance) (Carcinogen: N-METHYL-N-NITROSOUREA, 684-93-5, Dose [Inhibitor]: 0, 400 MG/KG IN DIET FOR THE DURATION OF STUDY BEGINNING 7 D PRIOR TO CARCINOGEN DOSE (STUDY DURATION: 187 D), Route [Inhibitor]: ORAL, Species: RAT, Strain/Sex: SPRAGUE-DAWLEY/FEMALE, Target Tissue: Type of Lesion: MAMMARY GLAND: TUMOR, Dose [Carcinogen]: 50 MG/KG BW ONCE, Promoter: NONE USED): 100%, 100%, 0%, not significant

CCCCCCCCCCCC(=O)OCC(COC(=O)CCCCCCCCCCC)OC(=O)CCCCCCCCCCC
tumour outcome (control, treated, inhibition, significance) (Carcinogen: DIMETHYLBENZANTHRACENE, 57-97-6, Dose [Inhibitor]: APPLIED 3 MIN POST EACH PROMOTER DOSE 3/WK FOR 20 WK BEGINNING 3 D POST CARCINOGEN DOSE (STUDY DURATION: 20 WK), Route [Inhibitor]: DERMAL, Species: MOUSE, Strain/Sex: SWISS/?, Target Tissue: Type of Lesion: SKIN: TUMOR, Dose [Carcinogen]: 250 UG/0.25 ML ONCE, Promoter: CROTON OIL, 8001-28-3): 100%, 0%, 100%, not calculated

Cc1cc(O)cc(=O)o1
tumour outcome (control, treated, inhibition, significance) (Carcinogen: BENZO[A]PYRENE, 50-32-8, Dose [Inhibitor]: 0.034 MMOL/G IN DIET FOR 5 WK BEGINNING 1 WK PRIOR TO FIRST CARCINOGEN DOSE AND CONTINUING FOR 3 D POST LAST CARCINOGEN, Route [Inhibitor]: ORAL, Species: MOUSE, Strain/Sex: ICR/FEMALE, Target Tissue: Type of Lesion: FORESTOMACH: TUMOR, Dose [Carcinogen]: 1 MG IN 0.2 ML CORN OIL 2/WK FOR 4 WK STARTING, Promoter: NONE USED): 94%, 85%, 10%, not significant
